This is an account of results in PubChem BioAssay AID179 (DTP/NCI, 2004).

This assay relates to CEM cells HIV-1 protection, formazan growth assay. The assay can be described thus: NCI AIDS Antiviral Assay. Particulars: for pIC50: measured here: growth of uninfected CEM cells. The essentials:
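Soluble formazan readout of cell growth; CEM cells ± HIV-1; 5 drug concs. ≥50% protection → retest; ≥50% again = moderately active; reproducible 100% = confirmed active.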

pEC50, pIC50: −log10 of the molar value. Activity calls are given as the source filed them.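 The calls were made as follows: active = compounds giving half or more protection of infected cells from virus-caused growth loss, again on retest; inactive = the rest.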

In general, pEC50 refers to the EC50 on a negative log10 scale, so that one unit is a factor of ten. Broadly, the pIC50 is −log10 of the IC50, conventionally taken in molar units. In the case of `CC(C)(C)NC1=NC(C(F)(F)F)(C(F)(F)F)NC(=O)N1`, the pEC50 was below 3.70 and the negative logarithm of the IC50 (pIC50) is 4.15.
For `CN(C)C1CS(=O)(=O)OC2=C1CCc1sccc12` (configuration not stated) the same measures were below 4.60 and below 4.60.
As for `CCN(CC)c1ccc(N=Nc2ccc([N+](=O)[O-])cc2OC(=O)/C=C/c2ccccc2)c(OC(=O)/C=C/c2ccccc2)c1`, the pEC50 was below 5.34 and the pIC50 was 6.07.
On to `CCOP(=O)(OCC)C(c1ccc(F)cc1)N(C(=O)NC(F)(F)F)c1ccc(F)cc1` (configuration not stated), for which the pEC50 is below 3.70 and the pIC50 is below 3.70.
With `Cc1cc(=O)n2nc(SCc3ccccc3)sc2n1`, the pEC50 is below 3.70 and the pIC50 is 4.09.
Turning to `CC#N.CC#N.COC(=O)[C@@H]1CCC(=O)[N-]1.COC(=O)[C@@H]1CCC(=O)[N-]1.COC(=O)[C@@H]1CCC(=O)[N-]1.COC(=O)[C@@H]1CCC(=O)[N-]1.[Rh+2].[Rh+2]`, the pEC50 is below 3.70 and the negative-log IC50 (pIC50) is below 3.70.
`O=C(/C=C/c1ccc(OCc2ccccc2)c(OCc2ccccc2)c1)OCc1ccccc1`: the pEC50 was below 3.70 and the pIC50 was below 3.70.
On to `NC(N)=NS(=O)(=O)c1ccc(NC(=O)c2ccc3nc4ccccc4c(Nc4ccc(S(N)(=O)=O)cc4)c3c2)cc1`, for which the pEC50 was below 3.70 and the negative-log IC50 (pIC50) was 3.83.
As for `O=C(O)C1(C(=O)O)CC1`, the outcome was inactive.
Consider `CN(C)C(=O)c1cccc(COc2ccc(N3C(N)=NC(N)=NC3(C)C)cc2Cl)c1`, for which the pEC50 is below 3.33 and the pIC50 was 6.83.
Take `NC(=O)NC(=O)C1CCC(=O)N1S(=O)(=O)c1ccc(Cl)cc1` (configuration not stated): the pEC50 was below 3.14 and the negative logarithm of the IC50 (pIC50) is 3.85.
The corresponding values for `CC1=NN(C(=O)c2ccncc2)C(=O)C1` are below 3.70 and below 3.70.
For `C1CCC2(CC1)CCCN2` the same measures were below 3.70 and below 3.70.
Turning to `CCOC(=O)c1cc(-c2cc(OC)c(OC)c([N+](=O)[O-])c2)c([N+](=O)[O-])n1C`, the pEC50 was below 3.70 and the negative-log IC50 (pIC50) is 4.99.
The corresponding values for `COc1ccc2c(c1)OCC1Cc3cccc(OC)c3OC21` (configuration not stated) are below 3.70 and 4.35.
`C=[N+](CNC(=O)CNC(=O)C(Cc1ccc([N+](=O)[O-])cc1)NC(=O)OC(C)(C)C)C(=O)CNC(=O)C(Cc1ccc([N+](=O)[O-])cc1)NC(=O)OC(C)(C)C` (configuration not stated): the pEC50 was below 3.70 and the pIC50 was 4.05.
The corresponding values for `C[C@@H]1O[C@@H](O[C@H]2CC[C@]3(C=O)[C@H]4CC[C@]5(C)[C@@H](c6ccc(=O)oc6)CC[C@]5(O)[C@@H]4CC[C@]3(O)C2)[C@H](O)[C@H](O)[C@H]1O[C@@H]1O[C@H](CO)[C@@H](O)[C@H](O)[C@H]1O` are below 6.70 and 8.42.
For `COC1C(O)CC(OC2CC(Oc3cc4cc5c(c(O)c4c(O)c3C)C(=O)[C@@H](OC3CC(OC4CC(OC6CC(C)(O)C(OC(C)=O)C(C)O6)C(O)C(C)O4)C(O)C(C)O3)[C@H]([C@H](OC)C(=O)[C@@H](O)[C@@H](C)O)C5)OC(C)C2OC(C)=O)OC1C` (some centres not stated) the same measures were below 5.21 and 8.71.
With `C(/Cc1ccc2c(c1)OCO2)=N\NC1=NCCN1`, the pEC50 was below 3.70 and the pIC50 is 3.93.
For `COc1nc(NC2OC(COC(C)=O)C(OC(C)=O)C(OC(C)=O)C2OC(C)=O)c(N=C(C)C(C)=O)c(=O)n1C` (configuration not stated), the result was inactive.
In the case of `Nc1nc(=S)[nH]c(N)c1N=O`, the pEC50 was 4.07 and the pIC50 is 3.92.
For `CCCCC1(C(NC(=O)c2ccccc2Cl)c2ccncc2)C(=O)N(c2ccccc2)N(c2ccccc2)C1=O` (configuration not stated), the result was inactive.
`CCOC(=O)C(Cl)(NC(=O)NC(Cl)(C(=O)OCC)C(F)(F)F)C(F)(F)F` (configuration not stated): the pEC50 is below 3.70 and the pIC50 is below 3.70.
`CC(=O)OC[C@]12[C@H](OC(C)=O)[C@H](OC(C)=O)[C@@H]3C(OC(C)=O)[C@@]14OC3(C)COC(=O)c1cccnc1CCC(C)C(=O)OC([C@H]4C)[C@H](O)[C@@H]2OC(=O)c1ccccc1` (some centres not stated): the result was inactive.
Still for that read-out and setting: as for `Cc1[nH]c2ccccc2c1C(=O)CC1(O)C(=O)Nc2ccccc21` (configuration not stated), the entry is “inactive”.
On to `CCN=C1SC2C(=O)N(C)C(S1)C(=O)N2C`, for which the pEC50 was below 3.16 and the pIC50 was 4.44.
For `C/C(=N\NC(=S)NCCCNC(=S)N/N=C(\C)c1ccccn1)c1ccccn1` the same measures were below 3.70 and 5.50.
For `[NH-]/N=C(\[O-])c1ccncc1.[NH-]/N=C(\[O-])c1ccncc1.[Ni+2]` the same measures were below 4.00 and below 4.00.
In the case of `COC(=O)C(=O)/C=C(/O)c1c(C)[nH]c2ccccc12`, the pEC50 is below 3.70 and the negative-log IC50 (pIC50) was below 3.70.
With `CCOC(=O)C1(C#N)CC1`, the outcome was inactive.
Consider `O=C(NCCCCCCNC(=O)NS(=O)(=O)c1ccccc1)NS(=O)(=O)c1ccccc1`, for which the pEC50 is below 3.70 and the pIC50 is below 3.70.
On to `COc1cc2c3c(c1)[nH]c(=S)n3C(=O)C(C)S2` (configuration not stated), for which the pEC50 was below 3.70 and the negative logarithm of the IC50 (pIC50) was 3.85.
For `Cc1c([N+](=O)[O-])ccc2c(NCCCN(C)C)ccnc12` the same measures were below 3.70 and 4.72.
The corresponding values for `CCC(CC)(C(=O)O)C(=O)O` are below 3.70 and below 3.70.
With `Cc1ccc2ccccc2c1CSc1ncnc2c1ncn2C1OC(CO)C(O)C1O` (configuration not stated), the pEC50 was below 3.70 and the pIC50 was 4.61.
On to `NCCSSCCCCSSCCN`, for which the pEC50 was below 3.70 and the pIC50 is 4.91.
As for `CC(=O)Nc1cc(N=Nc2ccc(N=Nc3ccc(NC(=O)c4ccc(N)cc4)cc3C)cc2C)c(S(=O)(=O)O)cc1N=Nc1cccc(C(=O)O)c1`, the negative logarithm of the EC50 (pEC50) was 4.68 and the negative-log IC50 (pIC50) was 3.77.
The corresponding values for `CCOC(=O)c1cc(N/N=C2/CCCNC2=O)c[nH]1` are below 3.70 and 4.38.
On to `O=C1C2c3[nH]c4ccccc4c3C3CCSCC3C2C(=O)N1c1ccccc1` (configuration not stated), for which the result was inactive.
For the compound `O=[N+]([O-])c1cccc2nc3ccccc3c(NCCCCCNc3c4ccccc4nc4cccc([N+](=O)[O-])c34)c12`, the pEC50 was 7.71 and the pIC50 was 7.08.
As to `COC(=O)C1C(C(=O)OC)N(Cc2ccccc2)C(=O)N1Cc1ccccc1` (configuration not stated), the pEC50 is below 3.70 and the negative logarithm of the IC50 (pIC50) is 3.92.
Turning to `CN(/N=C/c1ccnc2ccccc12)c1c([N+](=O)[O-])cc([N+](=O)[O-])cc1[N+](=O)[O-]`, the pEC50 is below 4.32 and the negative logarithm of the IC50 (pIC50) was 5.06.
As for `CCOC(=O)CC(C)OC1CCCCO1` (configuration not stated), the result was inactive.
Turning to `N#CC1(C#N)C(C#N)(C#N)C1(C#N)C(N)=O`, the pEC50 is below 3.70 and the negative logarithm of the IC50 (pIC50) was below 3.70.
Regarding `O=Nc1c(S(=O)(=O)O)cc2cc(S(=O)(=O)O)ccc2c1O`, the pEC50 is below 3.70 and the pIC50 was below 3.70.
Take `NC(CCCCCC(N)C(=O)O)C(=O)O` (configuration not stated): the outcome was inactive.
For `CC(=O)OCc1ncccc1C(OC(C)=O)OC(C)=O`, the pEC50 was below 3.05 and the pIC50 was below 3.05.
`CC(=O)OCC1OC(n2c(-c3ccc(Cl)cc3)ccc(C#N)c2=S)C(OC(C)=O)C(OC(C)=O)C1OC(C)=O` (configuration not stated): the pEC50 was below 3.70 and the negative-log IC50 (pIC50) is below 3.70.
`CCOC(=O)C1=C(OC(OCC)C(C)[Se]c2ccccc2)CCC1` (configuration not stated): the pEC50 is below 4.33 and the pIC50 is 4.37.
The corresponding values for `Cc1cn(CCCCOC(=O)NC(CCCNC(N)=O)C(=O)O)c(=O)[nH]c1=O` (configuration not stated) are below 3.70 and below 3.70.
As to `CCOC(=O)/C=C/c1ccc(N(C)C)cc1`, the pEC50 was below 4.48 and the negative logarithm of the IC50 (pIC50) was below 4.48.
In the case of `CCOC(=O)c1nc2cc(F)c(F)cc2nc1NCc1cc(OC)c(OC)c(OC)c1`, the pEC50 was below 4.00 and the negative-log IC50 (pIC50) was below 4.00.
For the compound `Nc1ccc(S(=O)(=O)Nc2nc3ccccc3nc2Nc2ccc(S(N)(=O)=O)cc2)cc1`, the pEC50 was below 3.70 and the pIC50 is 4.69.
The corresponding values for `O=c1[nH]c2ccccc2nc1/C=C(\O)C(F)F` are below 3.70 and below 3.70.
On to `CC(=O)c1ccc2c(c1)CC1(C2)Cc2cc3c(cc2C1)C(=O)CC3` (configuration not stated), for which the pEC50 is below 3.70 and the pIC50 is 6.63.
For `COc1cc(CC(=O)O)c(C(=O)c2cccc([N+](=O)[O-])c2)cc1OC` the same measures were below 3.70 and 4.43.
The corresponding values for `CC1=C(C(=O)NCc2ccccc2)C(c2ccc(N(C)C)cc2)C(C(=O)NCc2ccccc2)=C(C)N1` are below 4.14 and below 4.14.
For `O=c1oc(-c2ccccc2)c(-c2ccccc2)n1-c1ccc(Br)cc1` the same measures were below 4.00 and below 4.00.
On to `CN1CN(c2ccccc2)C2(CCN(CCCN(C)c3ccc(F)cc3)CC2)C1=O`, for which the pEC50 was below 3.70 and the negative logarithm of the IC50 (pIC50) was 4.45.
Turning to `CC(CCC(N)=O)(CCC(N)=O)[N+](=O)[O-]`, the pEC50 is below 3.70 and the negative logarithm of the IC50 (pIC50) was below 3.70.
`C/C(=N\N=C(/C)C1CC(CC(=O)O)C1(C)C)C1CC(CC(=O)O)C1(C)C` (configuration not stated): the pEC50 is below 3.73 and the pIC50 is below 3.73.
As to `CCOC(=O)c1cc(Br)c(-c2onc(C)c2Br)n1C`, the pEC50 was below 3.70 and the pIC50 is 4.05.
The corresponding values for `CC(C)/C(Cl)=N\OC(=O)Nc1ccc(C#N)cc1` are below 3.70 and 5.37.
`COc1ccc2cc(C(=O)Nc3ccc(O)c(C(=O)O)c3)ccc2c1OC`: the pEC50 is below 3.70 and the negative logarithm of the IC50 (pIC50) was below 3.70.
Turning to `c1ccc2c(c1)nnn1c3cnccc3nc21`, the pEC50 was below 4.23 and the pIC50 is 5.17.
The corresponding values for `Cc1ccc(NC(=S)NNC(=O)c2cc(-c3ccccc3)nc3ccccc23)cc1C` are below 3.70 and 4.90.
The corresponding values for `O=C1C[C@H]2CCCN2[C@@H](c2ccccc2)C1` are below 3.22 and below 3.22.
For `COc1ccc(C(=O)[O][Sn]([c]2ccccc2)([c]2ccccc2)[c]2ccccc2)c(OC)c1OC` the same measures were below 5.70 and 6.96.
